Reference: PubChem BioAssay AID2060507 (Molecular Pharmacology Branch, DTP, NCI, 2025)
pIC50: −log10 of the molar value.

System: 519858-162-T-J1-PDC complex spheroid viability
Test: Anticancer human tumor 519858-162-T-J1-PDC patient-derived colon adenocarcinoma cell line growth inhibition [GQUAD]
Settings: for pIC50: curve of first compound; for viability, T/C: stronger effect = lower value
Outline: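 Multi-cell-type spheroids of tumor cells with HUVEC and mesenchymal stem cells, treated with drug combinations. Concentrations descend in half-log steps from near clinical Cmax, or from 10 microM where Cmax is unknown; viability read-out.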

[1] = second compound 0.0316 µM, first compound 0.0316 µM
[2] = second compound 0.0316 µM, first compound 0.1 µM
[3] = second compound 0.0316 µM, first compound 0.316 µM
[4] = second compound 0.0316 µM, first compound 1 µM
[5] = second compound 0.0316 µM, first compound 3.16 µM
[6] = second compound 0.0316 µM, first compound 10 µM
[7] = second compound 0.1 µM, first compound 0.0316 µM
[8] = second compound 0.1 µM, first compound 0.1 µM
[9] = second compound 0.1 µM, first compound 0.316 µM
[10] = second compound 0.1 µM, first compound 1 µM
[11] = second compound 0.1 µM, first compound 3.16 µM
[12] = second compound 0.1 µM, first compound 10 µM
[13] = second compound 0.316 µM, first compound 0.0316 µM
[14] = second compound 0.316 µM, first compound 0.1 µM
[15] = second compound 0.316 µM, first compound 0.316 µM
[16] = second compound 0.316 µM, first compound 1 µM
[17] = second compound 0.316 µM, first compound 3.16 µM
[18] = second compound 0.316 µM, first compound 10 µM
[19] = second compound 1 µM, first compound 0.0316 µM
[20] = second compound 1 µM, first compound 0.1 µM
[21] = second compound 1 µM, first compound 0.316 µM
[22] = second compound 1 µM, first compound 1 µM
[23] = second compound 1 µM, first compound 3.16 µM
[24] = second compound 1 µM, first compound 10 µM
[25] = second compound 3.16 µM, first compound 0.0316 µM
[26] = second compound 3.16 µM, first compound 0.1 µM
[27] = second compound 3.16 µM, first compound 0.316 µM
[28] = second compound 3.16 µM, first compound 1 µM
[29] = second compound 3.16 µM, first compound 3.16 µM
[30] = second compound 3.16 µM, first compound 10 µM
[31] = second compound 10 µM, first compound 0.0316 µM
[32] = second compound 10 µM, first compound 0.1 µM
[33] = second compound 10 µM, first compound 0.316 µM
[34] = second compound 10 µM, first compound 1 µM
[35] = second compound 10 µM, first compound 3.16 µM
[36] = second compound 10 µM, first compound 10 µM
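Further: spheroids exposed to compounds for 7 days.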
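Wherever viability, T/C is given: 100% = DMSO vehicle control viability.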

COc1cccc2c1C(=O)c1c(O)c3c(c(O)c1C2=O)CC(O)(C(=O)CO)CC3OC1CC(N)C(O)C(C)O1 (stereo unspecified) + Cc1cnc(CNC(=O)c2c(=O)c3ccc(N4CCCN(C)CC4)nc3n3c2sc2ccccc23)cn1
pIC50 (second compound 0.0316 µM): < 5.00 | pIC50 (second compound 0.1 µM): < 5.00 | pIC50 (second compound 0.316 µM): < 5.00 | pIC50 (second compound 1 µM): < 5.00 | pIC50 (second compound 3.16 µM): 6.24 | pIC50 (second compound 10 µM): > 7.50 | viability, T/C [1]: 105% | viability, T/C [2]: 85.3% | viability, T/C [3]: 63.1% | viability, T/C [4]: 81.8% | viability, T/C [5]: 71.5% | viability, T/C [6]: 59.9% | viability, T/C [7]: 108% | viability, T/C [8]: 80.2% | viability, T/C [9]: 91% | viability, T/C [10]: 79.1% | viability, T/C [11]: 67% | viability, T/C [12]: 58.8% | viability, T/C [13]: 89.9% | viability, T/C [14]: 51.9% | viability, T/C [15]: 80.7% | viability, T/C [16]: 44.4% | viability, T/C [17]: 50.6% | viability, T/C [18]: 74.3% | viability, T/C [19]: 82.2% | viability, T/C [20]: 44.3% | viability, T/C [21]: 88.7% | viability, T/C [22]: 53.4% | viability, T/C [23]: 47.7% | viability, T/C [24]: 57.6% | viability, T/C [25]: 55.9% | viability, T/C [26]: 61.1% | viability, T/C [27]: 55% | viability, T/C [28]: 33.6% | viability, T/C [29]: 55.7% | viability, T/C [30]: 47.1% | viability, T/C [31]: 36% | viability, T/C [32]: 52.4% | viability, T/C [33]: 43.9% | viability, T/C [34]: 39.5% | viability, T/C [35]: 41.4% | viability, T/C [36]: 31.8%

CC1COCCN1c1cc(-c2ccnn2C)c2ccnc(-c3ccn[nH]3)c2n1 (stereo unspecified) + CN(C)c1ccc(Nc2c3ccc(NC(=O)CCN4CCCC4)cc3nc3cc(NC(=O)CCN4CCCC4)ccc23)cc1
pIC50 (second compound 0.0316 µM): 5.37 | pIC50 (second compound 0.1 µM): 5.36 | pIC50 (second compound 0.316 µM): 5.15 | pIC50 (second compound 1 µM): 5.32 | pIC50 (second compound 3.16 µM): 5.27 | pIC50 (second compound 10 µM): 5.35 | viability, T/C [1]: 87.2% | viability, T/C [2]: 125% | viability, T/C [3]: 88% | viability, T/C [4]: 101% | viability, T/C [5]: 54% | viability, T/C [6]: 38% | viability, T/C [7]: 78.2% | viability, T/C [8]: 106% | viability, T/C [9]: 86.4% | viability, T/C [10]: 124% | viability, T/C [11]: 55.4% | viability, T/C [12]: 36.1% | viability, T/C [13]: 91.3% | viability, T/C [14]: 86.8% | viability, T/C [15]: 79.3% | viability, T/C [16]: 101% | viability, T/C [17]: 79.6% | viability, T/C [18]: 37.4% | viability, T/C [19]: 100% | viability, T/C [20]: 85.7% | viability, T/C [21]: 73.8% | viability, T/C [22]: 102% | viability, T/C [23]: 63.4% | viability, T/C [24]: 25.3% | viability, T/C [25]: 87.5% | viability, T/C [26]: 83.9% | viability, T/C [27]: 106% | viability, T/C [28]: 92.4% | viability, T/C [29]: 58.7% | viability, T/C [30]: 39.5% | viability, T/C [31]: 71.2% | viability, T/C [32]: 101% | viability, T/C [33]: 73.5% | viability, T/C [34]: 100% | viability, T/C [35]: 51.1% | viability, T/C [36]: 47.3%

C=CCn1c(=O)c2cnc(Nc3ccc(N4CCN(C)CC4)cc3)nc2n1-c1cccc(C(C)(C)O)n1 + Cc1cnc(CNC(=O)c2c(=O)c3ccc(N4CCCN(C)CC4)nc3n3c2sc2ccccc23)cn1
pIC50 (second compound 0.0316 µM): < 5.00 | pIC50 (second compound 0.1 µM): < 5.00 | pIC50 (second compound 0.316 µM): < 5.00 | pIC50 (second compound 1 µM): > 7.50 | pIC50 (second compound 3.16 µM): > 7.50 | pIC50 (second compound 10 µM): > 7.50 | viability, T/C [1]: 95.6% | viability, T/C [2]: 82.6% | viability, T/C [3]: 94.3% | viability, T/C [4]: 66.1% | viability, T/C [5]: 70.4% | viability, T/C [6]: 76% | viability, T/C [7]: 81.8% | viability, T/C [8]: 96.9% | viability, T/C [9]: 58.5% | viability, T/C [10]: 92% | viability, T/C [11]: 66.8% | viability, T/C [12]: 69.7% | viability, T/C [13]: 51.6% | viability, T/C [14]: 73% | viability, T/C [15]: 49.8% | viability, T/C [16]: 64.2% | viability, T/C [17]: 75.8% | viability, T/C [18]: 64.3% | viability, T/C [19]: 60% | viability, T/C [20]: 48.2% | viability, T/C [21]: 38.8% | viability, T/C [22]: 42.4% | viability, T/C [23]: 73.6% | viability, T/C [24]: 68% | viability, T/C [25]: 46.3% | viability, T/C [26]: 51.4% | viability, T/C [27]: 53.8% | viability, T/C [28]: 45.5% | viability, T/C [29]: 49.5% | viability, T/C [30]: 53.4% | viability, T/C [31]: 40% | viability, T/C [32]: 55.3% | viability, T/C [33]: 51.6% | viability, T/C [34]: 40.1% | viability, T/C [35]: 32.3% | viability, T/C [36]: 39.4%
